For this assay, the target named is T1, HDAC6 (Homo sapiens, UniProt Q9UBN7).
T1 sequence (Q9UBN7 1-1215): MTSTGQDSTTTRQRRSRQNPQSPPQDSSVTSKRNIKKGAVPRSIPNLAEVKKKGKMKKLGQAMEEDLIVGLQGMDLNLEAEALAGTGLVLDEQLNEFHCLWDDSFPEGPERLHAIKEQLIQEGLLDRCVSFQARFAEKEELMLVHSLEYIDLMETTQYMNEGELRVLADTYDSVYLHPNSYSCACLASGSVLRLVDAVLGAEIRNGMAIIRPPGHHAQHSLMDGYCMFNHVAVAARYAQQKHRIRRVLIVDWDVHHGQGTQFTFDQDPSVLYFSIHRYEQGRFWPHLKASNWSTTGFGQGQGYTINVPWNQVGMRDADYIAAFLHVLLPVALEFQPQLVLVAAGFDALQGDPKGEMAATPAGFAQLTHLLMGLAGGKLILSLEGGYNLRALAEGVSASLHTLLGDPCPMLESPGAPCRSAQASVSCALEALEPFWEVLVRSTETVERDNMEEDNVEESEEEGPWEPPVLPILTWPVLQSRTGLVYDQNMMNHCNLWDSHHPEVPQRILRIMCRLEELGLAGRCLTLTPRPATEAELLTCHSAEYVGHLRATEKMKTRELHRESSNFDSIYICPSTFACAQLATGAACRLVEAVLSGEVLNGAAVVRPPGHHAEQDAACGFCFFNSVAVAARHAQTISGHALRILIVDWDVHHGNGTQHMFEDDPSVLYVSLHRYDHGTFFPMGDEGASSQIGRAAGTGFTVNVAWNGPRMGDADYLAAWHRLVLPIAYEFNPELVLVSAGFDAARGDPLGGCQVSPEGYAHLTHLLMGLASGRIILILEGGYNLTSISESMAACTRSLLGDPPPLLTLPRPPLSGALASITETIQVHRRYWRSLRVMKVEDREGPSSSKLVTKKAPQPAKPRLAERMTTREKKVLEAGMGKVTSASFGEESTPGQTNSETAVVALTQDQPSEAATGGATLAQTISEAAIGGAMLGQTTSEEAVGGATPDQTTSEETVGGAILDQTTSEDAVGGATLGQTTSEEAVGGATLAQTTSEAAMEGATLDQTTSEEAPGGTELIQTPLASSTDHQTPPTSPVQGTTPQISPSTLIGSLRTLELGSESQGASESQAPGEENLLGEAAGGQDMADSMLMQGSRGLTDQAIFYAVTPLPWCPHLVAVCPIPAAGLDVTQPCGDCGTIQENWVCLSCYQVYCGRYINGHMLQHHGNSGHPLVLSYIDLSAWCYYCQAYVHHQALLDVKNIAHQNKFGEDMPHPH
The experiment in a line: In vitro histone deacetylase assay: enzymatic HDAC6 electrophoretic mobility shift assay. Type of assay: biochemical. Conditions: full length human recombinant HDAC6, 1 nM enzyme, 2 μM peptide substrate RHKK(Ac)-NH2, 25° C.; read-out: Inhibitory Concentration (IC50) Values for Representative Compounds against HDAC6, Activity Range. In general terms: In EMSA bound probe runs differently from free probe, usually more slowly.

Molecules are shown by their SMILES.

For `COC[C@@H]1COc2cc(C(=O)NO)ccc2CN1c1ccccc1C` [(R)-N-hydroxy-3-(methoxymethyl)-4-(o-tolyl)-2,3,4,5-tetrahydrobenzo[f][1,4]oxazepine-8-carboxamide], the IC50 was at most 100 nM.

For the compound `COc1ccc(CN2Cc3ccc(C(=O)NO)cc3OCC2(C)C)cc1`, the IC50 was 100 to 500 nM.

Consider `CC(C)Oc1ccc(CN2CC(=O)Nc3ccc(C(=O)NO)cc3C2)cc1`, for which the IC50 is at most 100 nM. Then `C[C@@H]1CNCc2ccc(C(=O)NO)cc2O1` [(R)—N-hydroxy-2-methyl-2,3,4,5-tetrahydrobenzo[f][1,4]oxazepine-8-carboxamide], with above 500 nM; and `O=C(NO)c1ccc2c(c1)OCCN(c1nc3ccccc3[nH]1)C2`, with at most 100 nM; and `C[C@H]1COc2cc(C(=O)NO)ccc2CN1c1ccncc1` [(S)-N-hydroxy-3-methyl-4-(pyridin-4-yl)-2,3,4,5-tetrahydrobenzo[f][1,4]oxazepine-8-carboxamide], with 100 to 500 nM. Then `CN1Cc2ccc(C(=O)NO)cc2OCC12CC2` [N-hydroxy-4-methyl-4,5-dihydro-2H-spiro[benzo[f][1,4]oxazepine-3,1′-cyclopropane]-8-carboxamide], with at most 100 nM; and `O=C1CN(Cc2cccc(Cl)c2)Cc2cc(C(=O)NO)ccc2N1`, with 100 to 500 nM.

For the compound `C[C@H]1CN(C)Cc2ccc(C(=O)NO)cc2O1` [(S)—N-hydroxy-2,4-dimethyl-2,3,4,5-tetrahydrobenzo[f][1,4]oxazepine-8-carboxamide], the IC50 is above 500 nM. Then `CC(C)[C@@H]1COc2cc(C(=O)NO)ccc2CN1c1ccccc1`, with 100 to 500 nM; and `C[C@H]1COc2cc(C(=O)NO)ccc2CN1C(=O)N1C[C@H]2CC[C@H](C1)O2` [(S)-4-((1R,5R)-8-oxa-3-azabicyclo[3.2.1]octane-3-carbonyl)-N-hydroxy-3-methyl-2,3,4,5-tetrahydrobenzo[f][1,4]oxazepine-8-carboxamide], with at most 100 nM; and `COc1ccc(S(=O)(=O)N2Cc3ccc(C(=O)NO)cc3OC[C@@H]2C)cc1`, with 100 to 500 nM. Consider `O=C(NO)c1ccc2c(c1)OCCN(S(=O)(=O)N1CCCCC1)C2`, for which the IC50 was at most 100 nM.

As to `O=C(NO)c1ccc2c(c1)OCCN(Cc1ccccc1)S2(=O)=O`, the IC50 is above 500 nM. Consider `O=C(NO)c1ccc2c(c1)OCCN(C(=O)N1CCCC1)C2` [N-hydroxy-4-(pyrrolidine-1-carbonyl)-2,3,4,5-tetrahydrobenzo[f][1,4]oxazepine-8-carboxamide], for which the IC50 is at most 100 nM. Then `COc1ccc(CN2CCOc3ccc(C(=O)NO)cc3C2)cc1`, with above 500 nM; and `COC1CCN(C(=O)N2CCOc3cc(C(=O)NO)ccc3C2)CC1` [N-hydroxy-4-(4-methoxypiperidine-1-carbonyl)-2,3,4,5-tetrahydrobenzo[f][1,4]oxazepine-8-carboxamide], with 100 to 500 nM; and `N#Cc1ccc(CN2CC(=O)Nc3ccc(C(=O)NO)cc3C2)cc1`, with 100 to 500 nM. Then `O=C1CN(Cc2ccc(-c3ccccn3)cc2)Cc2cc(C(=O)NO)ccc2N1`, with at most 100 nM; and `COc1ccc(NC(=O)N2CCOc3ccc(C(=O)NO)cc3C2)cc1`, with above 500 nM.

For the compound `C[C@H]1COc2cc(C(=O)NO)ccc2CN1CC1COC1` [(S)-N-hydroxy-3-methyl-4-(oxetan-3-ylmethyl)-2,3,4,5-tetrahydrobenzo[f][1,4]oxazepine-8-carboxamide], the IC50 is at most 100 nM. As to `O=C1CN(Cc2cc(Cl)cc(Cl)c2)Cc2cc(C(=O)NO)ccc2N1`, the IC50 is at most 100 nM.

As for `O=C1CN(CC2CCOC2)Cc2cc(C(=O)NO)ccc2N1` (centres unmarked), the IC50 was above 500 nM.

Take `O=C1CN(Cc2ccnc(N3CCOCC3)c2)Cc2cc(C(=O)NO)ccc2N1`: the IC50 was 100 to 500 nM. `C[C@@H]1COc2cc(C(=O)NO)ccc2CN1` [(R)—N-hydroxy-3-methyl-2,3,4,5-tetrahydrobenzo[f][1,4]oxazepine-8-carboxamide]: the IC50 is 100 to 500 nM. Then `C[C@H]1COc2cc(C(=O)NO)ccc2CN1S(C)(=O)=O` [(S)-N-hydroxy-3-methyl-4-(methylsulfonyl)-2,3,4,5-tetrahydrobenzo[f][1,4]oxazepine-8-carboxamide], with at most 100 nM. As for `O=C1CN(Cc2ccc(-c3nccs3)cc2)Cc2cc(C(=O)NO)ccc2N1`, the figure is at most 100 nM; as for `O=C1CN(Cc2ccc(-n3cccc3)cc2)Cc2cc(C(=O)NO)ccc2N1`, at most 100 nM; as for `C[C@H]1COc2cc(C(=O)NO)ccc2CN1C(=O)N1CCCCC1` [(S)-N-hydroxy-3-methyl-4-(piperidine-1-carbonyl)-2,3,4,5-tetrahydrobenzo[f][1,4]oxazepine-8-carboxamide], at most 100 nM.

Regarding `O=C1CN(Cc2ccc(Oc3ccccc3)cc2)Cc2cc(C(=O)NO)ccc2N1`, the IC50 is at most 100 nM. Then `O=C1CN(Cc2cncnc2)Cc2cc(C(=O)NO)ccc2N1`, with above 500 nM. As for `COc1ccccc1N1Cc2ccc(C(=O)NO)cc2OC[C@@H]1C` [(S)-N-hydroxy-4-(2-methoxyphenyl)-3-methyl-2,3,4,5-tetrahydrobenzo[f][1,4]oxazepine-8-carboxamide], the IC50 is at most 100 nM. Turning to `COc1ccc(CN2CCOc3cc(C(=O)NO)ccc3[C@H]2C)cc1` [(R)-N-hydroxy-4-(4-methoxybenzyl)-5-methyl-2,3,4,5-tetrahydrobenzo[f][1,4]oxazepine-8-carboxamide], the IC50 is above 500 nM. Consider `C[C@@H]1COc2cc(C(=O)NO)ccc2CN1c1ccccc1`, for which the IC50 was 100 to 500 nM. As for `COc1ccc(CN2CC(=O)N(C)c3ccc(C(=O)NO)cc3C2)cc1`, the figure is above 500 nM; as for `C[C@H]1COc2cc(C(=O)NO)ccc2CN1C(=O)N1CCOc2ccccc21` [(S)-4-(3,4-dihydro-2H-benzo[b][1,4]oxazine-4-carbonyl)-N-hydroxy-3-methyl-2,3,4,5-tetrahydrobenzo[f][1,4]oxazepine-8-carboxamide], at most 100 nM; as for `COc1ccc(CN2CCOc3nc(C(=O)NO)ccc3C2)cc1`, above 500 nM. As for `C[C@@H]1CN(C)Cc2ccc(C(=O)NO)cc2O1` [(R)—N-hydroxy-2,4-dimethyl-2,3,4,5-tetrahydrobenzo[f][1,4]oxazepine-8-carboxamide], the figure is above 500 nM; as for `COC[C@H]1CN(C(=O)Nc2ccc(OC)cc2)Cc2ccc(C(=O)NO)cc2O1` [(R)-N8-hydroxy-2-(methoxymethyl)-N4-(4-methoxyphenyl)-2,3-dihydrobenzo[f][1,4]oxazepine-4,8(5H)-dicarboxamide], 100 to 500 nM; as for `CC(c1ccccc1)N1CC(=O)Nc2ccc(C(=O)NO)cc2C1` (centres unmarked), at most 100 nM. On to `O=C1CN(Cc2ccc(Cl)cc2)Cc2cc(C(=O)NO)ccc2N1`, for which the IC50 is at most 100 nM. Then `O=C(NO)c1ccc2c(c1)OCCN(c1ccncc1)C2` [N-hydroxy-4-(pyridin-4-yl)-2,3,4,5-tetrahydrobenzo[f][1,4]oxazepine-8-carboxamide], with above 500 nM. Regarding `COCCn1c(CN2CCOc3cc(C(=O)NO)ccc3C2)nc2ccccc21`, the IC50 was in the range of 100 to 500 nM. Turning to `CC1CCCCN1C(=O)N1Cc2ccc(C(=O)NO)cc2OC[C@@H]1C` (stereo partly drawn) [(3S)-N-hydroxy-3-methyl-4-(2-methylpiperidine-1-carbonyl)-2,3,4,5-tetrahydrobenzo[f][1,4]oxazepine-8-carboxamide], the IC50 was at most 100 nM. Take `CC(C)[C@H]1COc2cc(C(=O)NO)ccc2CN1c1ccccc1`: the IC50 is at most 100 nM. With `CC(C)(C)Oc1ccc(CN2CC(=O)Nc3ccc(C(=O)NO)cc3C2)cc1`, the IC50 lay in the range of 100 to 500 nM. For `CN(C)Cc1cccc(CN2CC(=O)Nc3ccc(C(=O)NO)cc3C2)c1`, the IC50 is above 500 nM.

Consider `O=C(NO)c1ccc2c(c1)OCC1(CC1)N(c1ccccc1)C2` [N-hydroxy-4-phenyl-4,5-dihydro-2H-spiro[benzo[f][1,4]oxazepine-3,1′-cyclopropane]-8-carboxamide], for which the IC50 fell in the range of 100 to 500 nM.

As for `C[C@H]1COc2cc(C(=O)NO)ccc2CN1C(=O)OC1CCC1` [cyclobutyl(S)-8-(hydroxycarbamoyl)-3-methyl-2,3-dihydrobenzo[f][1,4]oxazepine-4(5H)-carboxylate], the IC50 is at most 100 nM.

Regarding `C[C@H]1COc2cc(C(=O)NO)ccc2CN1C(=O)Nc1ccccc1` [(S)-N8-hydroxy-3-methyl-N4-phenyl-2,3-dihydrobenzo[f][1,4]oxazepine-4,8(5H)-dicarboxamide], the IC50 was at most 100 nM.

(Values after US11279681B2, “3-alkyl bicyclic [4,5,0] hydroxamic acids as HDAC inhibitors” (Valo Health, Inc., priority 2015, dated 2022).)
